Laboratory results as given in patent US20170305857A1, “N-ACYLPIPERIDINE ETHER TROPOMYOSIN-RELATED KINASE INHIBITORS” (Pfizer Limited, priority 2014, published 2017).

Biological target: T1, recombinant His-tagged cytoplasmic domains of TRKA receptor (NTRK1, PV3144, aa 441-796) (Homo sapiens, UniProt P04629)
T1 construct: aa 441-796; His; purchased Invitrogen PV3144
Assay: Isolated TRK enzyme assay (HTRF KinEASE-TK, PV3144 TrkA enzyme assay)
Type: biochemical
Details: 4 nM enzyme, 40 uM ATP, 35 min, arithmetic mean where more than one reading
Procedure: Isolated TRK Enzyme assays use the HTRF KinEASE-TK kit (Cisbio Cat #62TK0PEJ) with recombinant His-tagged cytoplasmic domains of TRKA receptor sourced from Invitrogen (see table below). This activity-assay measures the phosphorylation of tyrosine residues within a substrate from the HTRF kit which has been validated by Cisbio for a variety of tyrosine kinases including the TRK receptors.
0.5 mM stock solutions of test compounds are prepared and serially diluted in 100% DMSO. […] Greiner low volume black plates containing 0.2 ul of serially diluted compound, standard and HPE/ZPE are created using the Bravo nanolitre dispenser.
1× enzyme buffer is prepared from 5× Enzymatic Buffer from the Cisbio KinEASE TK kit using MilliQ water. The buffer is then supplemented with 10 mM MgCl and 2 mM DTT (both from Sigma).
Following this preactivation step, 5 ul/well of enzyme+ATP mix is added using a Multidrop Micro to the assay plate, spotted with 0.2 ul 100% DMSO compound. This is left for 20 mins at room temperature before adding 5 ul of 2 uM TK-substrate-Biotin (from the Cisbio kit) diluted in 1× enzyme buffer (1 uM FAC) using the Multidrop Micro. The reaction is incubated at room temperature for the optimized assay reaction time (see table).
After the Detection Reagent addition, plates are covered and incubated at room temperature for 60 minutes. […] Test compound data are expressed as percentage inhibition defined by HPE and ZPE values for each plate. Percentage inhibition in the presence of test compound is plotted against compound concentration on a log scale to determine an IC50 from the resultant sigmoid curve.
Where more than one reading was taken, the arithmetic mean is presented.

T1 sequence (P04629 441-796): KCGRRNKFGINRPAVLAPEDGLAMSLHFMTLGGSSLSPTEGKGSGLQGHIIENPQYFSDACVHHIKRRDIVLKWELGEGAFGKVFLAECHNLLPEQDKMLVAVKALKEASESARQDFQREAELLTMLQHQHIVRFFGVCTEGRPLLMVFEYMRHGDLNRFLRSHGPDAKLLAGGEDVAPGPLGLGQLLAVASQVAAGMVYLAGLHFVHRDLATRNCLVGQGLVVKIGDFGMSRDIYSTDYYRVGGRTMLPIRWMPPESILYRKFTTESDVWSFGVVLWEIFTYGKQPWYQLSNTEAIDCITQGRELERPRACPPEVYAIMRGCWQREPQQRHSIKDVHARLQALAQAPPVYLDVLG

Row | SMILES | IC50 [nM]
1 | Cc1n[nH]c(C)c1-c1cnc(O[C@@H]2CCN(C(=O)Cc3ccc(OC4CC4)cn3)C[C@@H]2F)c(C(N)=O)c1 [Example 79, 2-{[(3S,4R)-1-{[5-(cyclopropyloxy)pyridin-2-yl]acetyl}-3-fluoropiperidin-4-yl]oxy}-5-(3,5-dimethyl-1H-pyrazol-4-yl)pyridine-3-carboxamide] | 6.9
2 | Cn1cc(-c2cnc(O[C@H]3CCN(C(=O)Cc4ccc(OC(F)(F)F)cc4)C[C@H]3F)c(C(N)=O)c2)cn1 [Example 4, 2-{[(3R,4S)-3-fluoro-1-{[4-(trifluoromethoxy)phenyl]acetyl}piperidin-4-yl]oxy}-5-(1-methyl-1H-pyrazol-4-yl)pyridine-3-carboxamide] | 1.2
3 | Cn1cnc(-c2ccc(O[C@H]3CCN(C(=O)Cc4ccc(OC5CC5)cc4)C[C@H]3F)c(C(N)=O)c2)c1 (racemic) [Example 40, 1:1 Cis-racemic 2-{[1-{[4-(cyclopropyloxy)phenyl]acetyl}-3-fluoropiperidin-4-yl]oxy}-5-(1-methyl-1H-imidazol-4-yl)benzamide] | 1
4 | CC(C)(O)Cn1cc(-c2cnc(O[C@H]3CCN(C(=O)Cc4ccc(OC5CC5)cn4)C[C@@H]3F)c(C(N)=O)c2)cn1 [Example 163, 2-{[(3S,4S)-1-{[5-(cyclopropyloxy)pyridin-2-yl]acetyl}-3-fluoropiperidin-4-yl]oxy}-5-[1-(2-hydroxy-2-methylpropyl)-1H-pyrazol-4-yl]pyridine-3-carboxamide] | 16.6
5 | NC(=O)c1cc(-c2cn[nH]c2)ncc1OC1CCN(C(=O)Cc2ccc(OC(F)(F)F)c(F)c2)CC1 [Example 169, 5-[(1-{[3-fluoro-4-(trifluoromethoxy)phenyl]acetyl}piperidin-4-yl)oxy]-2-(1H-pyrazol-4-yl)pyridine-4-carboxamide] | 11.8
6 | Cc1n[nH]c(C)c1-c1cnc(O[C@H]2CCN(C(=O)Cc3ccc(OC4CC4)cn3)C[C@@H]2F)c(C(N)=O)c1 [Example 167, 2-{[(3S,4S)-1-{[5-(cyclopropyloxy)pyridin-2-yl]acetyl}-3-fluoropiperidin-4-yl]oxy}-5-(3,5-dimethyl-1H-pyrazol-4-yl)pyridine-3-carboxamide] | 19.4
7 | Cn1cc(-c2ccc(OC3CCN(C(=O)Cc4ccc(OC5CC5)cn4)CC3)c(C(N)=O)c2)cn1 [Example 173, 2-[(1-{[5-(cyclopropyloxy)pyridin-2-yl]acetyl}piperidin-4-yl)oxy]-5-(1-methyl-1H-pyrazol-4-yl)benzamide] | 11.4
8 | Cn1cc(-c2cc(C(N)=O)c(O[C@H]3CCN(C(=O)Cc4ccc(OC(F)(F)F)cc4)C[C@H]3F)nn2)cn1 [Example 156, 3-{[(3R,4S)-3-fluoro-1-{[4-(trifluoromethoxy)phenyl]acetyl}piperidin-4-yl]oxy}-6-(1-methyl-1H-pyrazol-4-yl)pyridazine-4-carboxamide] | 4.16
9 | NCc1ccc(-c2ccc(OC3CCN(C(=O)Cc4ccc(OC(F)(F)F)cc4)CC3)c(C(N)=O)c2)cc1 [Example 105, 4′-(aminomethyl)-4-[(1-{[4-(trifluoromethoxy)phenyl]acetyl}piperidin-4-yl)oxy]biphenyl-3-carboxamide] | 5
10 | CC(N)c1ccc(-c2cnc(OC3CCN(C(=O)Cc4ccc(OC(F)(F)F)cc4)CC3)c(C(N)=O)c2)cc1 (racemic) [Example 94, Racemic 5-[4-(1-aminoethyl)phenyl]-2-[(1-{[4-(trifluoromethoxy)phenyl]acetyl}piperidin-4-yl)oxy]pyridine-3-carboxamide] | 8.8
11 | NC(=O)c1cc(-c2cnn(CCO)c2)ccc1OC1CCN(C(=O)Cc2ccc(OC(F)(F)F)cc2)CC1 [Example 58, 5-[1-(2-hydroxyethyl)-1H-pyrazol-4-yl]-2-[(1-{[4-(trifluoromethoxy)phenyl]acetyl}piperidin-4-yl)oxy]benzamide] | 5.5
12 | CS(=O)(=O)Cn1cc(-c2cc(C(N)=O)c(O[C@H]3CCN(C(=O)Cc4ccc(OC(F)(F)F)cc4)C[C@@H]3F)cn2)cn1 [Example 166, 5-{[(3S,4S)-3-fluoro-1-{[4-(trifluoromethoxy)phenyl]acetyl}piperidin-4-yl]oxy}-2-{1-[(methylsulfonyl)methyl]-1H-pyrazol-4-yl}pyridine-4-carboxamide] | 12.8
13 | NC(=O)c1cc(-c2cccc(CO)c2)ccc1OC1CCN(C(=O)Cc2ccc(OC(F)(F)F)cc2)CC1 [Example 106, 3′-(hydroxymethyl)-4-[(1-{[4-(trifluoromethoxy)phenyl]acetyl}piperidin-4-yl)oxy]biphenyl-3-carboxamide] | 5.3
14 | C[C@H](N)c1ccc(-c2ccc(OC3CCN(C(=O)Cc4ccc(OC(F)(F)F)cc4)CC3)c(C(N)=O)c2)cc1 [Example 66, 4'-[(1S)-1-aminoethyl]-4-[(1-{[4-(trifluoromethoxy)phenyl]acetyl}piperidin-4-yl)oxy]biphenyl-3-carboxamide] | 2.8
15 | Cc1nc(-c2cnc(O[C@H]3CCN(C(=O)Cc4ccc(OC(F)(F)F)cc4)C[C@H]3F)c(C(N)=O)c2)c[nH]1 [Example 118, 2-{[(3R,4S)-3-fluoro-1-{[4-(trifluoromethoxy)phenyl]acetyl}piperidin-4-yl]oxy}-5-(2-methyl-1H-imidazol-4-yl)pyridine-3-carboxamide] | 1.1
16 | NC(=O)c1cc(-c2cn[nH]c2)cnc1O[C@H]1CCN(C(=O)Cc2ccc(OC(F)(F)F)cc2)C[C@H]1F [Example 72, 2-{[(3R,4S)-3-fluoro-1-{[4-(trifluoromethoxy)phenyl]acetyl}piperidin-4-yl]oxy}-5-(1H-pyrazol-4-yl)pyridine-3-carboxamide] | 1.3
17 | C[C@H](O)Cn1cc(-c2ccc(OC3CCN(C(=O)Cc4ccc(OC(F)(F)F)cc4)CC3)c(C(N)=O)c2)cn1 [Example 134] | 2.5
18 | Cc1cn(-c2cnc(O[C@@H]3CCN(C(=O)Cc4ccc(OC(F)(F)F)cc4)C[C@@H]3F)c(C(N)=O)c2)cn1 [Example 162, 2-(((3S,4R)-3-fluoro-1-(2-(4-(trifluoromethoxy)phenyl)acetyl)piperidin-4-yl)oxy)-5-(4-methyl-1H-imidazol-1-yl)nicotinamide] | 12.3
19 | NC(=O)c1cc(-n2cc(CO)cn2)cnc1O[C@@H]1CCN(C(=O)Cc2ccc(OC(F)(F)F)cc2)C[C@@H]1F [Example 160, 2-{[(3S,4R)-3-fluoro-1-{[4-(trifluoromethoxy)phenyl]acetyl}piperidin-4-yl]oxy}-5-[4-(hydroxymethyl)-1H-pyrazol-1-yl]pyridine-3-carboxamide] | 8.46
20 | Cn1cnc(-c2ccc(O[C@@H]3CCN(C(=O)Cc4ccc(OC(F)(F)F)cc4)C[C@H]3F)c(C(N)=O)c2)c1 [Example 53, 2-(((3R,4R)-3-fluoro-1-(2-(4-(trifluoromethoxy)phenyl)acetyl)piperidin-4-yl)oxy)-5-(1-methyl-1H-imidazol-4-yl)benzamide] | 1.2
21 | Cn1cc(-c2ccc(OC3CCN(C(=O)Cc4ccc(OC(F)(F)F)cc4)CC3)c(C(N)=O)c2)c(C#N)n1 [Example 149, 5-(3-cyano-1-methyl-1H-pyrazol-4-yl)-2-[(1-{[4-(trifluoromethoxy)phenyl]acetyl}piperidin-4-yl)oxy]benzamide] | 13.7
22 | C[C@H](CO)n1cc(-c2ccc(OC3CCN(C(=O)Cc4ccc(OC(F)(F)F)cc4)CC3)c(C(N)=O)c2)cn1 [Example 132] | 5.1
23 | Cn1ccc(-c2ccc(OC3CCN(C(=O)Cc4ccc(OC(F)(F)F)cc4)CC3)c(C(N)=O)c2)n1 [Example 148, 5-(1-methyl-1H-pyrazol-3-yl)-2-[(1-{[4-(trifluoromethoxy)phenyl]acetyl}piperidin-4-yl)oxy]benzamide] | 12.6
24 | CS(=O)(=O)Cn1cc(-c2cnc(OC3CCN(C(=O)Cc4ccc(OC(F)(F)F)cc4)CC3)c(C(N)=O)c2)cn1 [Example 20, 5-{1-[(methylsulfonyl)methyl]-1H-pyrazol-4-yl}-2-[(1-{[4-(trifluoromethoxy)phenyl]acetyl}pjperidin-4-yl)oxy]pyridine-3-carboxamide] | 5.7
25 | NC(=O)c1cc(-c2cnn(C3CS(=O)(=O)C3)c2)cnc1O[C@H]1CCN(C(=O)Cc2ccc(OC3CC3)cn2)C[C@H]1F (racemic) [Example 39, 1:1 Cis-racemic 2-{[1-{[5-(cyclopropyloxy)pyridin-2-yl]acetyl}-3-fluoropiperidin-4-yl]oxy}-5-[1-(1,1-dioxidothietan-3-yl)-1H-pyrazol-4-yl]pyridine-3-carboxamide] | 7
26 | Cc1nc(-c2ccc(O[C@H]3CCN(C(=O)Cc4ccc(OC(F)(F)F)cc4)C[C@H]3F)c(C(N)=O)c2)c[nH]1 [Example 77, 2-{[(3R,4S)-3-fluoro-1-{[4-(trifluoromethoxy)phenyl]acetyl}pipertdin-4-yl]oxy}-5-(2-methyl-1H-imidazol-4-yl)benzamide] | 1.6
27 | NC(=O)c1cc(-c2cn[nH]c2)ccc1O[C@@H]1CCN(C(=O)Cc2ccc(OC3CC3)cn2)C[C@@H]1F [Example 83, 2-{[(3S,4R)-1-{[5-(cyclopropyloxy)pyridin-2-yl]acetyl}-3-fluoropiperidin-4-yl]oxy}-5-(1H-pyrazol-4-yl)benzamide] | 1.4
